Measurements taken from PubChem BioAssay AID651896 (Broad Institute, 2012).
pIC50: −log10 of the molar value.

Test system: L-6 rat myocyte cytotoxicity, plate reader
Assay: L6 myocyte viability loss – cell-based, plate reader, cherry-pick, cytotoxicity control, dose response (AID 651896)

## C[C@@H]1CN([C@@H](C)CO)C(=O)c2cccc(NC(=O)c3ccncc3)c2O[C@H]1CN(C)Cc1ccc(Oc2ccccc2)cc1
  pIC50: 4.97
